Assay results reported in patent US8362051B2, “Mold-resistant wallboard” (Rohm and Haas Company, priority 2007, dated 2013).

How the values were obtained:
Type in all cases: cell-based
mold [1] = assay: TAPPI T-487 test on surface-treated paper; set-up: key to TAPPI T-487 rating Week 1 / TAPPI T-487 rating Week 2 / TAPPI T-487 rating Week 3: 100% mold coverage; 1: 90% mold coverage; 2: 80% mold coverage; 3: 70% mold coverage; 4: 60% mold coverage; 50% mold coverage; 6: 40% mold coverage; 7: 30% mold coverage; 8: 20% mold coverage; 9: 10% mold coverage; 10: no mold growth; conditions: surface treatment, average of three sheets
Procedure: The papers of this example were prepared via surface treatment. The values in Table 3 below represent the average concentration of active biocide in the paper and the average […]-487 test rating based on three paper sheets.

mold [2] = assay: ASTM-G21 Fungal Resistant Test Method on paper handsheets; set-up: key: 0: None; Traces of growth (<10%); 2: Light growth (10-30%); Medium growth (30-60%); 4: Heavy growth (60-complete coverage); conditions: for Mold Resistance Rating Week 1 A / Mold Resistance Rating Week 2 A: replicate A; for Mold Resistance Rating Week 1 B / Mold Resistance Rating Week 2 B: replicate B
Procedure: Results are compared with paper hand sheets incorporating DIMTS in the same manner, as well as handsheets with no biocide added. Handsheets are formed using a commercial handsheet mold which makes sheets 8×8 inches in area. The weights of the handsheets are 11-12 lbs/1000 ft^2 representing the typical basis weight of just the liner (outer facing plys) of the multi-ply wallboard paper. The 3:1 carbendazim/IPBC blend is added to the paper slurry (0.7 wt %) prior to forming the handsheets. Recycled news print paper is used as the source of fiber for handsheets. High Performance Liquid Chromatography (HPLC) is used to determine the amount of biocide present in each sheet, however, this method is not capable of detecting the levels of IPBC in the handsheets, therefore only carbendazim values are reported in Table 4 as weight of active (mg) per kg of paper. The handsheets are evaluated for fungal resistance using ASTM G21 over a two-week test period. A and B represent replicate analyses of same handsheet in Table 4.

mold [3] = assay: ASTM 3273 fungal growth test on paper sheets, biocide added to pulp slurry; set-up: key to ASTM 3273 rating Week 1: 0: 100% mold coverage; 1: 90%; 2: 80%; 3: 70%; 4: 60%; 5: 50%; 6: 40%; 7: 30%; 8: 20%; 9: 10%; 10: no mold growth coverage; 8: 20% mold coverage; 9: 10% mold coverage; 10: no mold growth; key to ASTM 3273 rating Week 2 / ASTM 3273 rating Week 3 / ASTM 3273 rating Week 4: 100% mold coverage; 1: 90% mold coverage; 2: 80% mold coverage; 3: 70% mold coverage; 4: 60% mold coverage; 50% mold coverage; 6: 40% mold coverage; 7: 30% mold coverage; 8: 20% mold coverage; 9: 10% mold coverage; 10: no mold growth; conditions: for ASTM 3273 rating Week 1 / ASTM 3273 rating Week 2 / ASTM 3273 rating Week 3 / ASTM 3273 rating Week 4: average of three sheets
Procedure: (§1) The biocides can be evaluated in the following examples by adding to a 0.4 wt % pulp slurry in water (100% recycle) typically used for gypsum wallboard facing paper. The slurry is filtered through a screen to drain the water from the stock and the resulting paper mat is blotted, couched, and dried to form a paper sheet with a basis weight of approximately 40 lb/1000 ft2. Three sheets per condition are prepared. High Performance Liquid Chromatography (HPLC) is used to determine the amount of biocide present in each sheet. The paper sheets are evaluated for fungal growth via ASTM 3273, currently the industry standard for mold-resistant wallboard, as well as the standard TAPPI T-487 fungal efficacy test.
(§2) The values in Tables 1 and 2 below represent data from samples made substantially according to the preceding protocol. The average concentration of active biocide in the paper and the average test rating based on three paper sheets are shown. Based on tables 1 and 2, approximately 4-4.5 times more DIMTS active was needed in the paper sheet than OIT before no mold growth was observed throughout the entire testing period.
(§3) For ASTM 3273, a 4-week test, the following rating scale applies: • 0—100% mold coverage • 1—90% mold coverage • 2—80% mold coverage • 3—70% mold coverage • 4—60% mold coverage • 5—50% mold coverage • 6—40% mold coverage • 7—30% mold coverage • 8—20% mold coverage • 9—10% mold coverage • 10—no mold growth For TAPPI T-487, a 3-week test, the following rating scale applies: • 0—no mold growth • 1—25% mold coverage • 2—50% mold coverage • 3—75% mold coverage • 4—100% mold coverage

mold [4] = assay: TAPPI T-487 fungal efficacy test on paper sheets, biocide added to pulp slurry; set-up: key: coverage; 8: 20% mold coverage; 9: 10% mold coverage; 10: no mold growth; conditions: average of three sheets
Procedure: as §1, §2, §3

Cc1ccc(S(=O)(=O)C(I)I)cc1 [DIMTS, diiodomethyltolylsulfone]
7 (30% mold coverage): ASTM 3273 rating Week 3 (mold [3]; 660 ppm in paper sheet)
4 (100% mold coverage): TAPPI T-487 rating Week 2 (mold [1]; 43 ppm in paper) | TAPPI T-487 rating Week 3 (mold [1]; 43 ppm in paper)
4 (Heavy growth (60-complete coverage)): Mold Resistance Rating Week 2 A (mold [2]; 281 ppm active in handsheet) | Mold Resistance Rating Week 2 B (mold [2]; 281 ppm active in handsheet) | Mold Resistance Rating Week 2 A (mold [2]; 297 ppm active in handsheet) | Mold Resistance Rating Week 2 B (mold [2]; 297 ppm active in handsheet)
0 (100% mold coverage): ASTM 3273 rating Week 3 (mold [3]; 370 ppm in paper sheet) | ASTM 3273 rating Week 4 (mold [3]; 370 ppm in paper sheet)
2 (50% mold coverage): TAPPI T-487 rating Week 1 (mold [1]; 43 ppm in paper) | TAPPI T-487 rating Week 2 (mold [4]; 386 ppm in paper sheet) | TAPPI T-487 rating Week 2 (mold [4]; 553 ppm in paper sheet)
8 (20% mold coverage): ASTM 3273 rating Week 2 (mold [3]; 370 ppm in paper sheet) | ASTM 3273 rating Week 2 (mold [3]; 660 ppm in paper sheet)
6 (40% mold coverage): ASTM 3273 rating Week 4 (mold [3]; 660 ppm in paper sheet)
3 (75% mold coverage): TAPPI T-487 rating Week 3 (mold [4]; 386 ppm in paper sheet) | TAPPI T-487 rating Week 3 (mold [4]; 553 ppm in paper sheet)
1 (Traces of growth (<10%)): Mold Resistance Rating Week 1 A (mold [2]; 281 ppm active in handsheet) | Mold Resistance Rating Week 1 B (mold [2]; 281 ppm active in handsheet) | Mold Resistance Rating Week 1 A (mold [2]; 297 ppm active in handsheet) | Mold Resistance Rating Week 1 B (mold [2]; 297 ppm active in handsheet) | Mold Resistance Rating Week 2 A (mold [2]; 354 ppm active in handsheet) | Mold Resistance Rating Week 2 B (mold [2]; 354 ppm active in handsheet)
10: ASTM 3273 rating Week 1 (mold [3]; 370 ppm in paper sheet) | ASTM 3273 rating Week 1 (mold [3]; 660 ppm in paper sheet) | ASTM 3273 rating Week 1 (mold [3]; 1272 ppm in paper sheet) | ASTM 3273 rating Week 2 (mold [3]; 1272 ppm in paper sheet) | ASTM 3273 rating Week 3 (mold [3]; 1272 ppm in paper sheet) | ASTM 3273 rating Week 4 (mold [3]; 1272 ppm in paper sheet)
0: TAPPI T-487 rating Week 1 (mold [1]; 563 ppm in paper) | TAPPI T-487 rating Week 2 (mold [1]; 563 ppm in paper) | TAPPI T-487 rating Week 3 (mold [1]; 563 ppm in paper) | TAPPI T-487 rating Week 1 (mold [1]; 5389 ppm in paper) | TAPPI T-487 rating Week 2 (mold [1]; 5389 ppm in paper) | TAPPI T-487 rating Week 3 (mold [1]; 5389 ppm in paper) | Mold Resistance Rating Week 1 A (mold [2]; 354 ppm active in handsheet) | Mold Resistance Rating Week 1 B (mold [2]; 354 ppm active in handsheet) | Mold Resistance Rating Week 1 A (mold [2]; 732 ppm active in handsheet) | Mold Resistance Rating Week 1 B (mold [2]; 732 ppm active in handsheet) | Mold Resistance Rating Week 2 A (mold [2]; 732 ppm active in handsheet) | Mold Resistance Rating Week 2 B (mold [2]; 732 ppm active in handsheet) | Mold Resistance Rating Week 1 A (mold [2]; 748 ppm active in handsheet) | Mold Resistance Rating Week 1 B (mold [2]; 748 ppm active in handsheet) | Mold Resistance Rating Week 2 A (mold [2]; 748 ppm active in handsheet) | Mold Resistance Rating Week 2 B (mold [2]; 748 ppm active in handsheet) | TAPPI T-487 rating Week 1 (mold [4]; 386 ppm in paper sheet) | TAPPI T-487 rating Week 1 (mold [4]; 553 ppm in paper sheet) | TAPPI T-487 rating Week 1 (mold [4]; 855 ppm in paper sheet) | TAPPI T-487 rating Week 2 (mold [4]; 855 ppm in paper sheet) | TAPPI T-487 rating Week 3 (mold [4]; 855 ppm in paper sheet)
4-4.5 times: DIMTS active needed in the paper sheet relative to OIT before no mold growth was observed throughout the entire testing period (mold [3]; approximately, based on tables 1 and 2 (ASTM 3273 and TAPPI T-487))
